Key:
Assay type in all cases: functional
Settings in all cases: Homo sapiens
PC-3 = assay: The compound was evaluated for cytotoxicity against PC-3 prostate cancer cell line
MOLT-4 = assay: The compound was evaluated for cytotoxicity against MOLT-4 leukemia cell line
NCI-H322M = assay: The compound was evaluated for cytotoxicity against NCI-H322M non-small cell lung cancer cell line
HCT-116 = assay: The compound was evaluated for cytotoxicity against HCT116 colon cancer cell line
IGROV-1 = assay: The compound was evaluated for cytotoxicity against IGROV1 ovarian cancer cell line
U-251 = assay: The compound was evaluated for cytotoxicity against U251 CNS cancer cell line
CAKI-1 = assay: The compound was evaluated for cytotoxicity against CAKI-1 renal cancer cell line
LOX IMVI = assay: The compound was evaluated for cytotoxicity against LOX-IMVI melanoma cell line
MDA-N = assay: The compound was evaluated for cytotoxicity against MDA-N breast cancer cell line

Cc1c2ccncc2c(C)c2c1[nH]c1ccc(CNCCN(C)C)cc12
GI50 (PC-3): 380 nM
GI50 (MOLT-4): 100 nM
GI50 (NCI-H322M): 250 nM
GI50 (HCT-116): 170 nM
GI50 (IGROV-1): 150 nM
GI50 (U-251): 280 nM
GI50 (CAKI-1): 260 nM
GI50 (LOX IMVI): 160 nM
GI50 (MDA-N): 280 nM
